Laboratory results from PMC10862865 (bioRxiv, 2024).

Molecular target: tau4RD (Homo sapiens, UniProt P10636)
Test: Unseeded heparin-induced tau4RD aggregation, thioflavin T fluorescence
Assay type: biochemical
Conditions: 1:2 protein:compound molar ratio; ThT fluorescence

Chain of tau4RD (P10636 561-685 limits assumed): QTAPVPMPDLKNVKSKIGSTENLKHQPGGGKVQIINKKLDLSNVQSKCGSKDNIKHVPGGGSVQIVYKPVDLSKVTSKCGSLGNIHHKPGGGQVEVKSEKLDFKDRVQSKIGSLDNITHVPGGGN

For `O=C1c2ccccc2-n2c1nc1ccccc1c2=O` [compound 1, tryptanthrin], the “Inhibition of heparin-induced tau4RD aggregation in initial screen (in words)” value was “among the most potent inhibitors”.
